Measurements published in patent publication US9801885B2, “Transvaginal phosphodiesterase inhibitors for infertility treatment” (PROKREA BCN, S.L., priority 2011, dated 2017).
“Also recorded” adds a separate entry of the source.

Experiments:
[1] = tested on: sperm of a semen sample from a patient with asthenozoospermia; test: In vitro assay of the effect of phosphodiesterase inhibitors on sperm motility; assay type: cell-based, human; set-up: key to Increase in sperm speed: the symbol ++ denotes a very significant increase in sperm motility; conditions: vs untreated sample; for Increase in sperm type A + B: mixed 1:1 with semen; for Increase in sperm speed: subjective rating, all sperm types
Description: In each case the corresponding phosphodiesterase inhibitor (rolipram, milrinone, ibudilast and pentoxifylline) was dissolved in a commercial medium suitable for performing sperm preparations (SpermRinse®) to the desired concentration. […] A semen sample was taken from a patient with asthenozoospermia and it was kept at room temperature for 5 minutes after liquefaction, it was mixed with SpermRinse® solution without phosphodiesterase inhibitor in a volumetric ratio of 1:1. Another part of the semen was mixed also after liquefaction with the SpermRinse® solution containing the phosphodiesterase inhibitor also in a proportion of 1:1 by volume. For each observation, 3 microdrops of the preparation were used, they were placed under an optical microscope with 20× objective and Makler camera. A sperm count was performed, the number of type A sperm (advancing rapidly, with rectilinear trajectory) and type B sperm (advancing rapidly, with curvilinear trajectory) of each sample being counted. This was performed for the untreated sample and for the samples treated with the phosphodiesterase inhibitor. Three readings were made for each sample and the mean value was calculated. Likewise, a subjective observation of the increase of sperm speed of all the sperm types was also performed for the samples treated with the phosphodiesterase inhibitor, with respect to the untreated samples.

[2] = tested on: infertile men with asthenozoospermia; conditions: 1200 mg daily for four months, cited from earlier work
couples with infertility = test: Assay of the effectiveness of intravaginal pentoxifylline in the treatment of couples with infertility; assay type: in vivo, human
Description: The most fertile days were determined by cervical mucus test, vaginal ultrasound, or ovulation test. An ovulation inducer, clomiphene or purified human gonadotrofin, irrespectively, was simultaneously administered to 6 of the couples. The gel was administered in 3 different cycles or in several days of the same cycle. A meeting was conducted with the patients between 15 and 20 hours after each administration and a microscopic examination of the endocervical exudate was performed.

[3] = microscopic examination 15 to 20 hours after transvaginal administration

SMILES | Increase in sperm type A + B ([1]; 100 μM in SpermRinse) | Increase in sperm speed ([1]; 100 μM) | Increase in sperm type A + B ([1]; 1 μM in SpermRinse) | Increase in sperm speed ([1]; 1 μM) | pregnancies counted after oral treatment ([2]; 15 infertile men) | pregnancy percentage after oral treatment ([2]; 15 infertile men) [%] | sperm motility of the subjects treated ([2]; oral) | pregnancies achieved (couples with infertility; among 20 couples, transvaginal gel of Example 2) | cervical mucus characteristics (filancia, transparency, leukocytic diathesis) (couples with infertility; [3]) | type A sperm (WHO classification) counted in cervical exudate (couples with infertility; [3]) | sperm quality in terms of motility in cervical exudate (couples with infertility; microscopic examination 15 to 20 hours after transvaginal administration, asthenozoospermia and normospermia) | side effects due to the treatment (couples with infertility; transvaginal administration in women) | pregnancy percentage (effectiveness) (couples with infertility; transvaginal, three single-doses of 10 g gel of Example 2 (4% pentoxifylline), after coitus, 20 couples) [%]
CC(C)C(=O)c1c(C(C)C)nn2ccccc12 [Ibudilast, 2-methyl-1-(2-(1-methyethyl)pyrazolo(1,5-a)pyridin-3-yl)-1-propanone] | ++ (the symbol ++ indicates an increase greater than 40% in the A+B sperm type count) | ++ |  |  |  |  |  |  |  |  |  |  | 
Cc1[nH]c(=O)c(C#N)cc1-c1ccncc1 [Milrinone, 1,6-dihydro-2-methyl-6-oxo-(3,4′-bipyridine)-5-carbonitrile] |  |  | ++ (the symbol ++ indicates an increase greater than 40% in the A+B sperm type count) | ++ |  |  |  |  |  |  |  |  | 
CC(=O)CCCCn1c(=O)c2c(ncn2C)n(C)c1=O [Pentoxifylline, 3,7-dihydro-3,7-dimethyl-1-(5-oxohexyl)-1H-purine-2,6-dione] |  |  | ++ (the symbol ++ indicates an increase greater than 40% in the A+B sperm type count) | ++ | 2 | 13.3 | substantial improvement in sperm motility | 4 | maintains and even improves the characteristics of cervical mucus; also recorded: improvement in the characteristics of cervical mucus | significant number of type A sperm | improvement in sperm quality in terms of motility | not observed in any case; also recorded: does not cause any type of allergy or side effect | 20
